Reference: ChEMBL document CHEMBL3639068, “Small molecule inhibitors of Plasmodium falciparum dihydroorotate dehydrogenase” (2014)

Columns and labels:
[1] = target: T1, Dihydroorotate dehydrogenase (fumarate) (Saccharomyces cerevisiae S288c, UniProt P28272); experiment: (§1) Enzymatic Assays: Type 2 DHODH activity was monitored with either the direct assay measuring the formation of orotate or via a chromogen reduction assay using DCIP. Although the extinction coefficient and absorption wavelength are preferable for the chromogen reduction assay, the […] electron acceptor DCIP can be utilized by DHODH as the final electron acceptor in lieu of CoQn when the endogenous substrate is at a low concentration. As such, the direct assay was used to measure the binding affinity of pfDHODH to CoQD and L-DHO. The enzymatic reaction was performed by varying the L-DHO concentration (1-400 μM) or CoQD concentration (1-200 μM) while keeping the other substrate constant and in excess. Inhibition of DHODH by small molecules was evaluated using the chromogen based assay with a final substrate concentration of 200 μM L-DHO, 18 μM CoQD, and 100 μM DCIP, unless otherwise noted.
T1 sequence (P28272 whole entry): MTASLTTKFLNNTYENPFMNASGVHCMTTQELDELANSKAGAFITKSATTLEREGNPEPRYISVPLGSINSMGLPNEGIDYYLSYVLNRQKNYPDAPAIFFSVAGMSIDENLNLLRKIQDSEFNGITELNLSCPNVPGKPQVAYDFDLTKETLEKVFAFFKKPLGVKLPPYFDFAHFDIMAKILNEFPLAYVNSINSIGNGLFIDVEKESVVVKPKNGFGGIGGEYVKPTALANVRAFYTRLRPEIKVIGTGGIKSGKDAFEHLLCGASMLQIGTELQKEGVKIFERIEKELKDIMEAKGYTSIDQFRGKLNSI

[2] = target: T2, Dihydroorotate dehydrogenase, mitochondrial, putative (Plasmodium vivax (strain Salvador I), UniProt A5K1N1); experiment: as §1
T2 sequence (A5K1N1 whole entry): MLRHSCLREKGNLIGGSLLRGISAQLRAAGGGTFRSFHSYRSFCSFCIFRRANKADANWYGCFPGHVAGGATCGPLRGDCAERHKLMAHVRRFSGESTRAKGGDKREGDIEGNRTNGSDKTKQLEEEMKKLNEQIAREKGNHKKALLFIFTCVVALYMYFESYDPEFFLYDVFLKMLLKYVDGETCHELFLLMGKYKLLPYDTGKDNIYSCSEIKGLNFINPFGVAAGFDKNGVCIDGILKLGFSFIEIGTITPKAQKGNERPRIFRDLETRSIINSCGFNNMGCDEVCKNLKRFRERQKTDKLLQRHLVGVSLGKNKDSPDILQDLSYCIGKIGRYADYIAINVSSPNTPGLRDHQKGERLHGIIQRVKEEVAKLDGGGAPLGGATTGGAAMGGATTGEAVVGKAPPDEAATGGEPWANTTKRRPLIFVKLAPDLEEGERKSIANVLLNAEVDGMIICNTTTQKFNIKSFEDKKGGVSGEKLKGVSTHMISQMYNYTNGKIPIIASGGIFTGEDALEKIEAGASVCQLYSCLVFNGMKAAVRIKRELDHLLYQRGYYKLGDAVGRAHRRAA

[3] = target: Dihydroorotate dehydrogenase (quinone), mitochondrial (Homo sapiens, UniProt Q02127); experiment: as §1
Chain of Dihydroorotate dehydrogenase (quinone), mitochondrial (Q02127 whole entry): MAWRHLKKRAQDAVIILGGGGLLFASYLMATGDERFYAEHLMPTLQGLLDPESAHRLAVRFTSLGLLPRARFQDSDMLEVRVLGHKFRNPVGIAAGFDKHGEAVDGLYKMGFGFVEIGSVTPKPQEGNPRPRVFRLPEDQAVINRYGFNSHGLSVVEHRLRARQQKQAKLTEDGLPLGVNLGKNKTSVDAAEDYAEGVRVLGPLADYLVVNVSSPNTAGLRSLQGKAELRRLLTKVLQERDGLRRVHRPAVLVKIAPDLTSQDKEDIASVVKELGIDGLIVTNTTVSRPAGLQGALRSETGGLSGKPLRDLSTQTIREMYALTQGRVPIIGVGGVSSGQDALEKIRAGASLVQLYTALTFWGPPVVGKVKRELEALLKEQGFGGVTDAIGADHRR

SMILES | IC50 [1] | IC50 [2] | IC50 [3]
CCCCCC1CCCc2c1nc1ccccc1c2O (configuration not stated) | > 10 µM | – | –
Cc1ccccc1/C=C/c1cc(O)c2ccccc2n1 | – | 5.6 µM | –
CCOC(=O)c1[nH]c(C)c(Cc2ccc(OCC)cc2)c1C | > 10 µM | – | –
CCCNC(=O)c1ccc(N2CCN(C)CC2)s1 | – | – | > 30 µM
Fc1cc(I)ccc1Nc1ccnc2cc(Cl)ccc12 | > 10 µM | > 10 µM | > 30 µM
